Reference: PubChem BioAssay (NCI)
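Protocol summary: plate cells (96-well), add compound at 5 concentrations, incubate 48 h, interpolate endpoints linearly. Definition used: TGI = concentration required for complete inhibition of growth.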

Experiments:
Test in all cases: inhibition of tumour cell growth, NCI panel, 48 h
NCI-H23 lung = tested on: NCI-H23 lung
HCC-2998 colon = tested on: HCC-2998 colon
KM12 colon = tested on: KM12 colon
OVCAR-8 ovarian = tested on: OVCAR-8 ovarian
MOLT-4 leukemia = tested on: MOLT-4 leukemia
MDA-MB-435 = tested on: MDA-MB-435
TK-10 renal = tested on: TK-10 renal
OVCAR-5 ovarian = tested on: OVCAR-5 ovarian
K-562 leukemia = tested on: K-562 leukemia
SR leukemia = tested on: SR leukemia
EKVX NSCLC = tested on: EKVX NSCLC
M14 melanoma = tested on: M14 melanoma
HL-60(TB) leukemia = tested on: HL-60(TB) leukemia
SF-539 CNS = tested on: SF-539 CNS
HCT-116 colon = tested on: HCT-116 colon
UO-31 renal = tested on: UO-31 renal
MDA-MB-231 breast = tested on: MDA-MB-231 breast
A549 NSCLC = tested on: A549 NSCLC
SN12C renal = tested on: SN12C renal
RPMI-8226 leukemia = tested on: RPMI-8226 leukemia
SK-MEL-2 melanoma = tested on: SK-MEL-2 melanoma
MALME-3M melanoma = tested on: MALME-3M melanoma
SK-MEL-5 melanoma = tested on: SK-MEL-5 melanoma
UACC-62 melanoma = tested on: UACC-62 melanoma
SK-MEL-28 melanoma = tested on: SK-MEL-28 melanoma
CCRF-CEM leukemia = tested on: CCRF-CEM leukemia
CAKI-1 renal = tested on: CAKI-1 renal
SK-OV-3 ovarian = tested on: SK-OV-3 ovarian
A498 renal = tested on: A498 renal
786-0 renal = tested on: 786-0 renal
LOX IMVI melanoma = tested on: LOX IMVI melanoma
HCT-15 colon = tested on: HCT-15 colon
OVCAR-3 ovarian = tested on: OVCAR-3 ovarian
MDA-N = tested on: MDA-N
NCI-H226 lung = tested on: NCI-H226 lung
NCI-H460 lung = tested on: NCI-H460 lung
BT-549 breast = tested on: BT-549 breast
IGROV1 ovarian = tested on: IGROV1 ovarian
PC-3 prostate = tested on: PC-3 prostate
MCF7 breast = tested on: MCF7 breast
U251 CNS = tested on: U251 CNS
HT29 colon = tested on: HT29 colon
DU-145 prostate = tested on: DU-145 prostate
T-47D breast = tested on: T-47D breast
UACC-257 melanoma = tested on: UACC-257 melanoma
ACHN renal = tested on: ACHN renal
RXF 393 renal = tested on: RXF 393 renal
SNB-75 CNS = tested on: SNB-75 CNS
SF-295 CNS = tested on: SF-295 CNS
HS 578T breast = tested on: HS 578T breast
SW-620 colon = tested on: SW-620 colon
SNB-19 CNS = tested on: SNB-19 CNS
NCI-H522 lung = tested on: NCI-H522 lung
COLO 205 colon = tested on: COLO 205 colon
HOP-62 NSCLC = tested on: HOP-62 NSCLC
SF-268 CNS = tested on: SF-268 CNS
NCI/ADR-RES ovarian = tested on: NCI/ADR-RES ovarian
OVCAR-4 ovarian = tested on: OVCAR-4 ovarian
HOP-92 NSCLC = tested on: HOP-92 NSCLC

Measured: TGI

COc1cccc(C2c3cc4c(cc3OC(NNc3ccccc3)C2C)OCO4)c1OC (stereo not given)
44.1 µM: RXF 393 renal
84.2 µM: SF-539 CNS
46.6 µM: PC-3 prostate
96.9 µM: NCI-H23 lung
31.6 µM: CCRF-CEM leukemia
17 µM: HL-60(TB) leukemia
76.2 µM: MCF7 breast
67.2 µM: BT-549 breast
18.8 µM: SR leukemia
58.2 µM: HT29 colon
80.1 µM: HS 578T breast
23.4 µM: HCT-116 colon
25.1 µM: TK-10 renal
71.5 µM: UACC-257 melanoma
9.05 µM: K-562 leukemia
4.24 µM: SF-295 CNS
32.3 µM: EKVX NSCLC
88.1 µM: A498 renal
6.79 µM: HCC-2998 colon
74.4 µM: NCI-H226 lung
24 µM: OVCAR-3 ovarian
68.7 µM: DU-145 prostate
15.7 µM: COLO 205 colon
53.3 µM: MOLT-4 leukemia
70.7 µM: MALME-3M melanoma
not listed: NCI/ADR-RES ovarian | OVCAR-4 ovarian | HOP-92 NSCLC
> 100 µM: all other assays above

CN(C)CCNC(=O)c1cccc(NC(=O)c2ccccc2)c1[N+](=O)[O-]
64.8 µM: OVCAR-3 ovarian
27.3 µM: MALME-3M melanoma
not listed: K-562 leukemia | SR leukemia | EKVX NSCLC | SF-539 CNS | RPMI-8226 leukemia | LOX IMVI melanoma | DU-145 prostate | RXF 393 renal | OVCAR-4 ovarian | HOP-92 NSCLC
> 100 µM: all other assays above

CCCCc1ccc(N2C(=O)c3cc([N+](=O)[O-])cnc3S2(=O)=O)cc1
59 µM: SK-MEL-2 melanoma
8.03 µM: HOP-92 NSCLC
not listed: HL-60(TB) leukemia | CCRF-CEM leukemia | DU-145 prostate | RXF 393 renal | NCI-H522 lung
> 100 µM: all other assays above

O=C1CCN(CCC(F)(F)C(F)(F)C(F)(F)C(F)(F)C(F)(F)C(F)(F)F)C(=S)N1CCC(F)(F)C(F)(F)C(F)(F)C(F)(F)C(F)(F)C(F)(F)F
not listed: RPMI-8226 leukemia | SK-MEL-2 melanoma | LOX IMVI melanoma | HCT-15 colon | NCI/ADR-RES ovarian
> 100 µM: all other assays above

COc1c(Cl)nc2ccccc2c1N=[N+]=[N-]
94.8 µM: BT-549 breast
60.9 µM: A498 renal
not listed: OVCAR-8 ovarian | EKVX NSCLC | SK-MEL-2 melanoma | HCT-15 colon | NCI-H226 lung | NCI-H522 lung | NCI/ADR-RES ovarian
> 100 µM: all other assays above
